Like-named read-outs stand apart in the source and are kept apart here.
Test system: recombinant NL-RLuc virus (HIV NL4-3 with Renilla Luciferase gene) in MT-2 cells
Assay: Inhibition of HIV replication (NL-RLuc virus, luciferase readout in MT-2 cells)
Assay type: cell-based
Settings: MT2, 120 h

| SMILES | EC50 (read-out: Activity) [µM] | EC50 (read-out: EC50 μM) [µM] |
| --- | --- | --- |
| Cc1cc(CN2CCc3cc(-c4c(C)nc(C)c([C@H](OC(C)(C)C)C(=O)O)c4N4CCC(C)(C)CC4)ccc3C2)[nH]n1 [Compound 42, (S)-2-(tert-butoxy)-2-(4-(4,4-dimethylpiperidin-1-yl)-2,6-dimethyl-5-(2-((3-methyl-1H-pyrazol-5-yl)methyl)-1,2,3,4-tetrahydroisoquinolin-6-yl)pyridin-3-yl)acetic acid] | < 0.1 |  |
| CCc1ncc(CN2CCc3cc(-c4c(C)nc(C)c([C@H](OC(C)(C)C)C(=O)O)c4N4CCC(C)(C)CC4)ccc3C2)[nH]1 [Compound 21, (S)-2-(tert-butoxy)-2-(4-(4,4-dimethylpiperidin-1-yl)-5-(2-((2-ethyl-1H-imidazol-5-yl)methyl)-1,2,3,4-tetrahydroisoquinolin-6-yl)-2,6-dimethylpyridin-3-yl)acetic acid] | > 1 | 1.54 |
| Cc1nc(C)c([C@H](OC(C)(C)C)C(=O)O)c(N2CCC(C)(C)CC2)c1-c1ccc2c(c1)CCN(Cc1cn[nH]c1)C2 [Compound 50, (S)-2-(5-(2-((1H-pyrazol-4-yl)methyl)-1,2,3,4-tetrahydroisoquinolin-6-yl)-4-(4,4-dimethylpiperidin-1-yl)-2,6-dimethylpyridin-3-yl)-2-(tert-butoxy)acetic acid] | < 0.1 |  |
| Cc1nc[nH]c1CN1CCc2cc(-c3c(C)nc(C)c([C@H](OC(C)(C)C)C(=O)O)c3N3CCC(C)(C)CC3)ccc2C1 [Compound 39, (S)-2-(tert-butoxy)-2-(4-(4,4-dimethylpiperidin-1-yl)-2,6-dimethyl-5-(2-((4-methyl-1H-imidazol-5-yl)methyl)-1,2,3,4-tetrahydroisoquinolin-6-yl)pyridin-3-yl)acetic acid] | 0.1 to 1 | 0.231 |
| COc1ncccc1CN1CCc2cc(-c3c(C)nc(C)c([C@H](OC(C)(C)C)C(=O)O)c3N3CCC(C)(C)CC3)ccc2C1 [Compound 35, (S)-2-(tert-butoxy)-2-(4-(4,4-dimethylpiperidin-1-yl)-5-(2-((2-methoxypyridin-3-yl)methyl)-1,2,3,4-tetrahydroisoquinolin-6-yl)-2,6-dimethylpyridin-3-yl)acetic acid] | < 0.1 |  |
| COc1cccc(CN2CCc3cc(-c4c(C)nc(C)c([C@H](OC(C)(C)C)C(=O)O)c4N4CCC(C)(C)CC4)ccc3C2)n1 [Compound 30, (S)-2-(tert-butoxy)-2-(4-(4,4-dimethylpiperidin-1-yl)-5-(2-((6-methoxypyridin-2-yl)methyl)-1,2,3,4-tetrahydroisoquinolin-6-yl)-2,6-dimethylpyridin-3-yl)acetic acid] | < 0.1 |  |
| Cc1nc(C)c([C@H](OC(C)(C)C)C(=O)O)c(N2CCC(C)(C)CC2)c1-c1ccc2c(c1)CCN(Cc1ncc[nH]1)C2 [Compound 17, (S)-2-(5-(2-((1H-imidazol-2-yl)methyl)-1,2,3,4-tetrahydroisoquinolin-6-yl)-4-(4,4-dimethylpiperidin-1-yl)-2,6-dimethylpyridin-3-yl)-2-(tert-butoxy)acetic acid] | 0.1 to 1 | 0.544 |
| Cc1nc(CN2CCc3cc(-c4c(C)nc(C)c([C@H](OC(C)(C)C)C(=O)O)c4N4CCC(C)(C)CC4)ccc3C2)c(C)o1 [Compound 18, (S)-2-(tert-butoxy)-2-(5-(2-((2,5-dimethyloxazol-4-yl)methyl)-1,2,3,4-tetrahydroisoquinolin-6-yl)-4-(4,4-dimethylpiperidin-1-yl)-2,6-dimethylpyridin-3-yl)acetic acid] | < 0.1 |  |
| CCn1cc(CN2CCc3cc(-c4c(C)nc(C)c([C@H](OC(C)(C)C)C(=O)O)c4N4CCC(C)(C)CC4)ccc3C2)c(C)n1 [Compound 22, (S)-2-(tert-butoxy)-2-(4-(4,4-dimethylpiperidin-1-yl)-5-(2-((1-ethyl-3-methyl-1H-pyrazol-4-yl)methyl)-1,2,3,4-tetrahydroisoquinolin-6-yl)-2,6-dimethylpyridin-3-yl)acetic acid] | < 0.1 |  |

Reference: patent US20190152957A1, “PYRIDIN-3-YL ACETIC ACID DERIVATIVES AS INHIBITORS OF HUMAN IMMUNODEFICIENCY VIRUS REPLICATION” (ViiV HEALTHCARE UK (NO.5) LIMITED, priority 2016, published 2019)
